In patent US9920032B2, “Heterocyclic compounds useful as pim kinase inhibitors” (Incyte Corporation, priority 2015, dated 2018):

Key:
Assay type in all cases: biochemical
Pim-2 = Pim-2 (Homo sapiens (Human), UniProt Q9P1W9); test: Pim-2 kinase assay; settings: 1 mM ATP; read-out: PIM2 IC50
Method in brief: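 TR-FRET assay with 1 nM enzyme, 0.05 μM fluorescein-CREBtide and 1 mM ATP in Tris pH 7.5 buffer with MgCl2, DTT, BSA and Tween-20, run 2 h at 25° C. Stopped with EDTA and Tb-labelled anti-CREB pSer133 antibody, then read after 30 min at room temperature.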

Pim-1 = Pim-1 (Homo sapiens (Human), UniProt P11309); test: Pim-1 kinase assay; settings: 1 mM ATP; read-out: PIM1 IC50
Sequence of Pim-1 (P11309 whole entry): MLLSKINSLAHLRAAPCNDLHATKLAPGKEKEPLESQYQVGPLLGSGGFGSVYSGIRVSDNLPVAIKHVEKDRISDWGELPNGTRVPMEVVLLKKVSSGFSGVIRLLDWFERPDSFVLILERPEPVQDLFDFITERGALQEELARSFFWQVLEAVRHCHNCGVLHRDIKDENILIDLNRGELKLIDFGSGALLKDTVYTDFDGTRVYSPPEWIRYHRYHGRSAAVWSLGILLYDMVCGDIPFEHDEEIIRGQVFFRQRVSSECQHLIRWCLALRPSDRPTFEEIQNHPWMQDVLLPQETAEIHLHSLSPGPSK
Method in brief: (§1)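 Enzyme at 2.5 pM (Pim-1) or 1.25 pM (Pim-3) reacted 1 h at 25° C with 1 mM ATP and 0.05 μM biotinylated BAD peptide, pH 7.5. Phospho-Ser112 BAD detected by antibody/Protein-A acceptor and streptavidin donor bead proximity signal after EDTA quench and 1 h dark incubation.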

Pim-3 = Pim-3 (Homo sapiens (Human), UniProt Q86V86); test: Pim-3 kinase assay; settings: 1 mM ATP; read-out: PIM3 IC50
Method in brief: as §1

Sequence of Pim-2 (Q9P1W9 whole entry): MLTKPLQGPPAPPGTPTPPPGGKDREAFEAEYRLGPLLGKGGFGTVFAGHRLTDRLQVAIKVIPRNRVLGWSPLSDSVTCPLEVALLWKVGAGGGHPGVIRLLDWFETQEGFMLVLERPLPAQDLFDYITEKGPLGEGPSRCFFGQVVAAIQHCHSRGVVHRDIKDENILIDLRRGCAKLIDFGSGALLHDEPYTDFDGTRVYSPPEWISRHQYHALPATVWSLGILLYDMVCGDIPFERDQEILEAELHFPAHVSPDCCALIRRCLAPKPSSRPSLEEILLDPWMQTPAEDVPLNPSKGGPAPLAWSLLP

| Structure (SMILES) | IC50 (Pim-2) [nM] | IC50 (Pim-1) [nM] | IC50 (Pim-3) [nM] |
| --- | --- | --- | --- |
| C[C@@H]1C[C@H](N)C[C@H](c2ccncc2NC(=O)c2ccc(F)c3cc(N4CCCc5cccc(F)c54)cnc23)C1 [Example 137, N-(4-((1R,3S,5S)-3-Amino-5-methylcyclohexyl)pyridin-3-yl)-5′,8-difluoro-3,4-dihydro-2H-1,3′-biquinoline-8′-carboxamide] | ≤ 100 | ≤ 10 | ≤ 10 |
| C[C@@H]1C[C@H](N)C[C@H](c2ccncc2NC(=O)c2ccc(F)c3cc(N4CCCS4(=O)=O)cnc23)C1 [Example 138, N-(4-((1R,3S,5S)-3-Amino-5-methylcyclohexyl)pyridin-3-yl)-3-(1,1-dioxidoisothiazolidin-2-yl)-5-fluoroquinoline-8-carboxamide] | 100 to 1000 | ≤ 10 | ≤ 10 |
| C[C@@H]1C[C@H](N)C[C@H](c2ccncc2NC(=O)c2ccc(F)c3cc(N(C)c4ncccc4OC(F)F)cnc23)C1 [Example 139, N-(4-((1R,3S,5S)-3-Amino-5-methylcyclohexyl)pyridin-3-yl)-3-((3-(difluoromethoxy)pyridin-2-yl)(methyl)amino)-5-fluoroquinoline-8-carboxamide] | ≤ 100 | ≤ 10 | ≤ 10 |
| C[C@@H]1C[C@H](N)C[C@H](c2ccncc2NC(=O)c2ccc(F)c3cc(N(C)C4CCCC4C#N)cnc23)C1 (stereo partly drawn) [Example 140, N-(4-((1R,3S,5S)-3-Amino-5-methylcyclohexyl)pyridin-3-yl)-3-((2-cyanocyclopentyl)(methyl)amino)-5-fluoroquinoline-8-carboxamide] | ≤ 100 | ≤ 10 | ≤ 10 |
| Cc1ccc(N(C)c2cnc3c(C(=O)Nc4cnccc4[C@@H]4C[C@H](C)C[C@H](N)C4)ccc(F)c3c2)c(C)n1 [Example 141, N-(4-((1R,3S,5S)-3-Amino-5-methylcyclohexyl)pyridin-3-yl)-3-((2,6-dimethylpyridin-3-yl)(methyl)amino)-5-fluoroquinoline-8-carboxamide] | ≤ 100 | ≤ 10 | ≤ 10 |
| C[C@@H]1C[C@H](N)C[C@H](c2ccncc2NC(=O)c2ccc(F)c3cc(N(C)c4ncccc4F)cnc23)C1 [Example 142, N-(4-((1R,3S,5S)-3-Amino-5-methylcyclohexyl)pyridin-3-yl)-5-fluoro-3-((3-fluoropyridin-2-yl)(methyl)amino)quinoline-8-carboxamide] | ≤ 100 | ≤ 10 | ≤ 10 |
| C[C@@H]1C[C@H](N)C[C@H](c2ccncc2NC(=O)c2ccc(F)c3cc(N(C)c4cnccc4C(F)(F)F)cnc23)C1 [Example 143, N-(4-((1R,3S,5S)-3-Amino-5-methylcyclohexyl)pyridin-3-yl)-5-fluoro-3-(methyl(4-(trifluoromethyl)pyridin-3-yl)amino)quinoline-8-carboxamide] | ≤ 100 | ≤ 10 | ≤ 10 |
| COc1ccc(N(C)c2cnc3c(C(=O)Nc4cnccc4[C@@H]4C[C@H](C)C[C@H](N)C4)ccc(F)c3c2)c(C)n1 [Example 144, N-(4-((1R,3S,5S)-3-Amino-5-methylcyclohexyl)pyridin-3-yl)-5-fluoro-3-((6-methoxy-2-methylpyridin-3-yl)(methyl)amino)quinoline-8-carboxamide] | ≤ 100 | ≤ 10 | ≤ 10 |
| C[C@@H]1C[C@H](N)C[C@H](c2ccncc2NC(=O)c2ccc(F)c3cc(N(C)c4ccncc4F)cnc23)C1 [Example 145, N-(4-((1R,3S,5S)-3-Amino-5-methylcyclohexyl)pyridin-3-yl)-5-fluoro-3-((3-fluoropyridin-4-yl)(methyl)amino)quinoline-8-carboxamide] | ≤ 100 | ≤ 10 | ≤ 10 |
| Cc1ccncc1N(C)c1cnc2c(C(=O)Nc3cnccc3[C@@H]3C[C@H](C)C[C@H](N)C3)ccc(F)c2c1 [Example 146, N-(4-((1R,3S,5S)-3-Amino-5-methylcyclohexyl)pyridin-3-yl)-5-fluoro-3-(methyl(4-methylpyridin-3-yl)amino)quinoline-8-carboxamide] | ≤ 100 | ≤ 10 | ≤ 10 |
| CC1CCC1N(C)c1cnc2c(C(=O)Nc3cnccc3[C@@H]3C[C@H](C)C[C@H](N)C3)ccc(F)c2c1 (stereo partly drawn) [Example 147, N-(4-((1R,3S,5S)-3-Amino-5-methylcyclohexyl)pyridin-3-yl)-5-fluoro-3-(methyl(2-methylcyclobutyl)amino)quinoline-8-carboxamide] | ≤ 100 | ≤ 10 | ≤ 10 |
| COc1ccc(N(C)c2cnc3c(C(=O)Nc4cnccc4[C@@H]4C[C@H](C)C[C@H](N)C4)ccc(F)c3c2)cc1 [Example 148, N-(4-((1R,3S,5S)-3-Amino-5-methylcyclohexyl)pyridin-3-yl)-5-fluoro-3-((4-methoxyphenyl)(methyl)amino)quinoline-8-carboxamide] | ≤ 100 | ≤ 10 | ≤ 10 |
| Cc1nccnc1N(C)c1cnc2c(C(=O)Nc3cnccc3[C@@H]3C[C@H](C)C[C@H](N)C3)ccc(F)c2c1 [Example 149, N-(4-((1R,3S,5S)-3-Amino-5-methylcyclohexyl)pyridin-3-yl)-5-fluoro-3-(methyl(3-methylpyrazin-2-yl)amino)quinoline-8-carboxamide] | ≤ 100 | ≤ 10 | ≤ 10 |
| COc1ccncc1N(C)c1cnc2c(C(=O)Nc3cnccc3[C@@H]3C[C@H](C)C[C@H](N)C3)ccc(F)c2c1 [Example 150, N-(4-((1R,3S,5S)-3-Amino-5-methylcyclohexyl)pyridin-3-yl)-5-fluoro-3-((4-methoxypyridin-3-yl)(methyl)amino)quinoline-8-carboxamide] | ≤ 100 | ≤ 10 | ≤ 10 |
| C[C@@H]1C[C@H](N)C[C@H](c2ccncc2NC(=O)c2ccc(F)c3cc(N(C)C4CCCOC4)cnc23)C1 (stereo partly drawn) [Example 151] | ≤ 100 | ≤ 10 | ≤ 10 |
| COc1ccccc1N(C)c1cnc2c(C(=O)Nc3cnccc3[C@@H]3C[C@H](C)C[C@H](N)C3)ccc(F)c2c1 [Example 152, N-(4-((1R,3S,5S)-3-Amino-5-methylcyclohexyl)pyridin-3-yl)-5-fluoro-3-((2-methoxyphenyl)(methyl)amino)quinoline-8-carboxamide] | ≤ 100 | ≤ 10 | ≤ 10 |
| C[C@@H]1C[C@H](N)C[C@H](c2ccncc2NC(=O)c2ccc(F)c3cc(N(C)c4ccc5nccn5c4)cnc23)C1 [Example 153] | 100 to 1000 | ≤ 10 | ≤ 10 |
| C[C@@H]1C[C@H](N)C[C@H](c2ccncc2NC(=O)c2ccc(F)c3cc(N(C)[C@@H]4CCOC4)cnc23)C1 [Example 154, N-(4-((1R,3S,5S)-3-Amino-5-methylcyclohexyl)pyridin-3-yl)-5-fluoro-3-(methyl((R)-tetrahydrofuran-3-yl)amino)quinoline-8-carboxamide] | 100 to 1000 | ≤ 10 | ≤ 10 |
| CO[C@@H]1C[C@H](C)N(c2cnc3c(C(=O)Nc4cnccc4[C@@H]4C[C@H](C)C[C@H](N)C4)ccc(F)c3c2)C1 [Example 155, N-(4-((1R,3S,5S)-3-Amino-5-methylcyclohexyl]pyridin-3-yl}-5-fluoro-3-[(2S,4R)-4-methoxy-2-methylpyrrolidin-1-yl]quinoline-8-carboxamide] | ≤ 100 | ≤ 10 | ≤ 10 |
| CO[C@@H]1C[C@@H](C)N(c2cnc3c(C(=O)Nc4cnccc4[C@@H]4C[C@H](C)C[C@H](N)C4)ccc(F)c3c2)C1 [Example 156] | ≤ 100 | ≤ 10 | ≤ 10 |
| CO[C@H]1C[C@H](C)N(c2cnc3c(C(=O)Nc4cnccc4[C@@H]4C[C@H](C)C[C@H](N)C4)ccc(F)c3c2)C1 [Example 157, N-(4-((1R,3S,5S)-3-Amino-5-methylcyclohexyl)pyridin-3-yl)-5-fluoro-3-((2S,4S)-4-methoxy-2-methylpyrrolidin-1-yl)quinoline-8-carboxamide] | ≤ 100 | ≤ 10 | ≤ 10 |
| CO[C@H]1C[C@@H](C)N(c2cnc3c(C(=O)Nc4cnccc4[C@@H]4C[C@H](C)C[C@H](N)C4)ccc(F)c3c2)C1 [Example 158, N-(4-((1R,3S,5S)-3-Amino-5-methylcyclohexyl)pyridin-3-yl)-5-fluoro-3-((2R,4S)-4-methoxy-2-methylpyrrolidin-1-yl)quinoline-8-carboxamide] | ≤ 100 | ≤ 10 | ≤ 10 |
| CO[C@H]1CCN(c2cnc3c(C(=O)Nc4cnccc4[C@@H]4C[C@H](C)C[C@H](N)C4)ccc(F)c3c2)[C@H](C)C1 [Example 159, N-(4-((1R,3S,5S)-3-Amino-5-methylcyclohexyl)pyridin-3-yl)-5-fluoro-3-((2R,4S)-4-methoxy-2-methylpiperidin-1-yl)quinoline-8-carboxamide] | ≤ 100 | ≤ 10 | ≤ 10 |
| CO[C@@H]1CCN(c2cnc3c(C(=O)Nc4cnccc4[C@@H]4C[C@H](C)C[C@H](N)C4)ccc(F)c3c2)[C@@H](C)C1 [Example 160, N-(4-((1R,3S,5S)-3-Amino-5-methylcyclohexyl)pyridin-3-yl)-5-fluoro-3-((2S,4R)-4-methoxy-2-methylpiperidin-1-yl)quinoline-8-carboxamide] | ≤ 100 | ≤ 10 | ≤ 10 |
